Data on 17 molecules can be found in US10196386B2, “Compounds having muscarinic receptor antagonist and beta2 adrenergic receptor agonist activity” (priority 2016, dated 2019).

Assay [1] concerns the target T1, Human β2 adrenoceptor (Homo sapiens, UniProt P07550).
T1 construct: purchased Perkin Elmer
Kind of assay: β2 adrenoceptor radioligand binding assay. Summed up: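 Human β2 receptor membranes incubated 1 h at room temperature with 0.3 nM [125I]cyanopindolol and compound in pH 7.4 HEPES buffer (0.5% DMSO); 2 μM s-propranolol defined non-specific binding. Bound label counted after filtration; IC50 from competition curves, converted to Ki via Cheng–Prusoff.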

For assay [2], the target named is T2, Human M3 receptor (Homo sapiens, UniProt P20309).
T2 construct: purchased Perkin Elmer
T2 sequence (P20309 whole entry): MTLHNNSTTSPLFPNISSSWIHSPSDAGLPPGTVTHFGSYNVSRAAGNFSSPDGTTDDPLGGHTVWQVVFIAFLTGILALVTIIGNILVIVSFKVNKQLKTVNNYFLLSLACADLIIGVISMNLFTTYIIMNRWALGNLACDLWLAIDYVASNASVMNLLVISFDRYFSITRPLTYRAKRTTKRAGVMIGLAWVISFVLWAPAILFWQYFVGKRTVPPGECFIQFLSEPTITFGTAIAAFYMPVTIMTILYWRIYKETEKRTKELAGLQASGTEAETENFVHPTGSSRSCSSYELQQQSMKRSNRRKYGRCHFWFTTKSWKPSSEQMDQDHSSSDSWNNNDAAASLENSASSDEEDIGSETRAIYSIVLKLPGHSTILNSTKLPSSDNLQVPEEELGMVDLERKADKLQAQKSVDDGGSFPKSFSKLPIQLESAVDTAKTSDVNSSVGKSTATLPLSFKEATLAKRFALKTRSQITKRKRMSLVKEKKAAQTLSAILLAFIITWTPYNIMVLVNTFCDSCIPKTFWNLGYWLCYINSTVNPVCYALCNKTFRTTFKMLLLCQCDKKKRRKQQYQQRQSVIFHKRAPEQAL
As to the kind of experiment: biochemical. The class given is binding. The note with it: read-out: M3 Range.

T1 sequence (P07550 whole entry): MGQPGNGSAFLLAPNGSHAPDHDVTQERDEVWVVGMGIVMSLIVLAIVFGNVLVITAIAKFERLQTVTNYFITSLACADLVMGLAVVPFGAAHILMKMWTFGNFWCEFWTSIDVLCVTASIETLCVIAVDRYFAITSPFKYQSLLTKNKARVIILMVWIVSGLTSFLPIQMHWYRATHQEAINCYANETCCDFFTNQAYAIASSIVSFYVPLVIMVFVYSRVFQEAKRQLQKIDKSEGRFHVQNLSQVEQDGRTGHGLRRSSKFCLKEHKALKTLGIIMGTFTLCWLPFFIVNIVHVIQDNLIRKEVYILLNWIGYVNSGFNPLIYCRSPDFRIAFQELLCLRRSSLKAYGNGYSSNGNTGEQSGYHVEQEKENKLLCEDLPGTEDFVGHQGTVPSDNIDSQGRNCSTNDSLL

Regarding `COc1cc(C(=O)N2CC=C(c3cccc([C@](O)(C(=O)OCC4CCN(Cc5ccccc5)CC4)c4ccccc4)c3)C2)ccc1CNC[C@H](O)c1ccc(O)c2[nH]c(=O)ccc12` [Compound 3J, (1-Benzylpiperidin-4-yl)methyl (S)-2-hydroxy-2-(3-(1-(4-((((R)-2-hydroxy-2-(8-hydroxy-2-oxo-1,2-dihydroquinolin-5-yl)ethyl)amino)methyl)-3-methoxybenzoyl)-2,5-dihydro-1H-pyrrol-3-yl)phenyl)-2-phenylacetate], the IC50 in assay [1] and in assay [2] was below 0.3 nM in each case.
For the molecule `O=C(NCc1ncc(-c2cccc([C@](O)(C(=O)OCC3CCN(Cc4ccccc4)CC3)c3ccccc3)c2)cn1)c1ccc(CNC[C@H](O)c2ccc(O)c3[nH]c(=O)ccc23)cc1` [Compound 4, (1-Benzylpiperidin-4-yl)methyl (S)-2-hydroxy-2-(3-(2-((4-((((R)-2-hydroxy-2-(8-hydroxy-2-oxo-1,2-dihydroquinolin-5-yl)ethyl)amino)methyl)benzamido)-methyl)pyrimidin-5-yl)phenyl)-2-phenylacetate], the IC50 in assay [1] and in assay [2] was 0.3 to 3 nM in each case.
For the molecule `COc1cc(C(=O)NCc2ccnc(-c3cccc([C@](O)(C(=O)OCC4CCN(Cc5ccccc5)CC4)c4ccccc4)c3)n2)ccc1CNC[C@H](O)c1ccc(O)c2[nH]c(=O)ccc12` [Compound 4A, (1-Benzylpiperidin-4-yl)methyl (S)-2-hydroxy-2-(3-(4-((4-((((R)-2-hydroxy-2-(8-hydroxy-2-oxo-1,2-dihydroquinolin-5-yl)ethyl)amino)methyl)-3-methoxybenzamido)methyl)pyrimidin-2-yl)phenyl)-2-phenylacetate], the IC50 is below 0.3 nM in assay [1] and 0.3 to 3 nM in assay [2].
On the same counts, the results for `O=C(NCc1cnc(-c2cccc([C@](O)(C(=O)OCC3CCN(Cc4ccccc4)CC3)c3ccccc3)c2)cn1)c1ccc(CNC[C@H](O)c2ccc(O)c3[nH]c(=O)ccc23)cc1` [Compound 4B, (1-Benzylpiperidin-4-yl)methyl (S)-2-hydroxy-2-(3-(5-((4-((((R)-2-hydroxy-2-(8-hydroxy-2-oxo-1,2-dihydroquinolin-5-yl)ethyl)amino)methyl)-benzamido)methyl)pyrazin-2-yl)phenyl)-2-phenylacetate] are 0.3 to 3 nM and below 0.3 nM.
On the same counts, the results for `COc1cc(C(=O)NCc2ccc(-c3cccc([C@](O)(C(=O)OCC4CCN(Cc5ccccc5)CC4)c4ccccc4)c3)nn2)ccc1CNC[C@H](O)c1ccc(O)c2[nH]c(=O)ccc12` [Compound 4C, (1-Benzylpiperidin-4-yl)methyl (S)-2-hydroxy-2-(3-(6-((4-((((R)-2-hydroxy-2-(8-hydroxy-2-oxo-1,2-dihydroquinolin-5-yl)ethyl)amino)methyl)-3-methoxybenzamido)methyl)pyridazin-3-yl)phenyl)-2-phenylacetate] are below 0.3 nM and below 0.3 nM.
The corresponding values for `O=C(NCc1ccnc(-c2cccc([C@](O)(C(=O)OCC3CCN(Cc4ccccc4)CC3)c3ccccc3)c2)n1)c1ccc(CNC[C@H](O)c2ccc(O)c3[nH]c(=O)ccc23)cc1` [Compound 4D, (1-Benzylpiperidin-4-yl)methyl (S)-2-hydroxy-2-(3-(4-((4-((((R)-2-hydroxy-2-(8-hydroxy-2-oxo-1,2-dihydroquinolin-5-yl)ethyl)amino)methyl)-benzamido)methyl)pyrimidin-2-yl)phenyl)-2-phenylacetate] are 0.3 to 3 nM and 0.3 to 3 nM.
Regarding `COc1cc(C(=O)NCc2ncc(-c3cccc([C@](O)(C(=O)OCC4CCN(Cc5ccccc5)CC4)c4ccccc4)c3)cn2)ccc1CNC[C@H](O)c1ccc(O)c2[nH]c(=O)ccc12` [Compound 4E, (1-Benzylpiperidin-4-yl)methyl (S)-2-hydroxy-2-(3-(2-((4-((((R)-2-hydroxy-2-(8-hydroxy-2-oxo-1,2-dihydroquinolin-5-yl)ethyl)amino)methyl)-3-methoxybenzamido)methyl)pyrimidin-5-yl)phenyl)-2-phenylacetate], the IC50 in assay [1] and in assay [2] was 0.3 to 3 nM throughout.
`COc1cc(C(=O)NCc2nn(C)cc2-c2cccc([C@](O)(C(=O)OCC3CCN(Cc4ccccc4)CC3)c3ccccc3)c2)ccc1CNC[C@H](O)c1ccc(O)c2[nH]c(=O)ccc12` [Compound 4F, (1-Benzylpiperidin-4-yl)methyl (S)-2-hydroxy-2-(3-(3-((4-((((R)-2-hydroxy-2-(8-hydroxy-2-oxo-1,2-dihydroquinolin-5-yl)ethyl)amino)methyl)-3-methoxybenzamido)methyl)-1-methyl-1H-pyrazol-4-yl)phenyl)-2-phenylacetate]: the IC50 in assay [1] and in assay [2] was 0.3 to 3 nM throughout.
For `COc1cc(C(=O)NCc2cncc(-c3cccc([C@](O)(C(=O)OCC4CCN(Cc5ccccc5)CC4)c4ccccc4)c3)n2)ccc1CNC[C@H](O)c1ccc(O)c2[nH]c(=O)ccc12` [Compound 4G, (1-Benzylpiperidin-4-yl)methyl (S)-2-hydroxy-2-(3-(6-((4-((((R)-2-hydroxy-2-(8-hydroxy-2-oxo-1,2-dihydroquinolin-5-yl)ethyl)amino)methyl)-3-methoxybenzamido)methyl)pyrazin-2-yl)phenyl)-2-phenylacetate], the values for the IC50 in assay [1] and in assay [2] were below 0.3 nM and 0.3 to 3 nM, respectively.
`COc1cc(C(=O)NCc2cnc(-c3cccc([C@](O)(C(=O)OCC4CCN(Cc5ccccc5)CC4)c4ccccc4)c3)cn2)ccc1CNC[C@H](O)c1ccc(O)c2[nH]c(=O)ccc12` [Compound 4H, (1-Benzylpiperidin-4-yl)methyl (S)-2-hydroxy-2-(3-(5-((4-((((R)-2-hydroxy-2-(8-hydroxy-2-oxo-1,2-dihydroquinolin-5-yl)ethyl)amino)methyl)-3-methoxybenzamido)methyl)pyrazin-2-yl)phenyl)-2-phenylacetate]: the results for the IC50 in assay [1] and in assay [2] were below 0.3 nM and 0.3 to 3 nM, respectively.
On the same counts, the results for `O=C(NCc1cc(-c2cccc([C@](O)(C(=O)OCC3CCN(Cc4ccccc4)CC3)c3ccccc3)c2)cs1)c1ccc(CNC[C@H](O)c2ccc(O)c3[nH]c(=O)ccc23)cc1` [Compound 5, (1-Benzylpiperidin-4-yl)methyl (S)-2-hydroxy-2-(3-(5-((4-((((R)-2-hydroxy-2-(8-hydroxy-2-oxo-1,2-dihydroquinolin-5-yl)ethyl)amino)methyl)benzamido)methyl)-thiophen-3-yl)phenyl)-2-phenylacetate] are below 0.3 nM and 0.3 to 3 nM.
The corresponding values for `O=C(NCc1csc(-c2cccc([C@](O)(C(=O)OCC3CCN(Cc4ccccc4)CC3)c3ccccc3)c2)c1)c1ccc(CNC[C@H](O)c2ccc(O)c3[nH]c(=O)ccc23)cc1` [Compound 5A, (1-Benzylpiperidin-4-yl)methyl (S)-2-hydroxy-2-(3-(4-((4-((((R)-2-hydroxy-2-(8-hydroxy-2-oxo-1,2-dihydroquinolin-5-yl)ethyl)amino)methyl)-benzamido)methyl)thiophen-2-yl)phenyl)-2-phenylacetate] are below 0.3 nM and 0.3 to 3 nM.
With `O=C(NCc1cnc(-c2cccc([C@](O)(C(=O)OCC3CCN(Cc4ccccc4)CC3)c3ccccc3)c2)s1)c1ccc(CNC[C@H](O)c2ccc(O)c3[nH]c(=O)ccc23)cc1` [Compound 5B, (1-Benzylpiperidin-4-yl)methyl (S)-2-hydroxy-2-(3-(5-((4-((((R)-2-hydroxy-2-(8-hydroxy-2-oxo-1,2-dihydroquinolin-5-yl)ethyl)amino)methyl)-benzamido)methyl)thiazol-2-yl)phenyl)-2-phenylacetate], the IC50 in assay [1] was below 0.3 nM; in assay [2], 0.3 to 3 nM.
Turning to `O=C(c1ccc(CNC[C@H](O)c2ccc(O)c3[nH]c(=O)ccc23)cc1)N1CCc2sc(-c3cccc([C@](O)(C(=O)OCC4CCN(Cc5ccccc5)CC4)c4ccccc4)c3)cc2C1` [Compound 5C, (1-Benzylpiperidin-4-yl)methyl (S)-2-hydroxy-2-(3-(5-(4-((((R)-2-hydroxy-2-(8-hydroxy-2-oxo-1,2-dihydroquinolin-5-yl)ethyl)amino)methyl)benzoyl)-4,5,6,7-tetrahydrothieno[3,2-c]pyridin-2-yl)phenyl)-2-phenylacetate], the figures for the IC50 in assay [1] and in assay [2] were below 0.3 nM and 0.3 to 3 nM, respectively.
In the case of `O=C(NCCc1ccc(-c2cccc([C@](O)(C(=O)OCC3CCN(Cc4ccccc4)CC3)c3ccccc3)c2)s1)c1ccc(CNC[C@H](O)c2ccc(O)c3[nH]c(=O)ccc23)cc1` [Compound 5D, (1-Benzylpiperidin-4-yl)methyl (S)-2-hydroxy-2-(3-(5-(2-(4-((((R)-2-hydroxy-2-(8-hydroxy-2-oxo-1,2-dihydroquinolin-5-yl)ethyl)amino)methyl)-benzamido)ethyl)thiophen-2-yl)phenyl)-2-phenylacetate], the IC50 is below 0.3 nM in assay [1] and 0.3 to 3 nM in assay [2].
Regarding `COc1cc(C(=O)NCc2nccnc2-c2cccc([C@](O)(C(=O)OCC3CCN(Cc4ccccc4)CC3)c3ccccc3)c2)ccc1CNC[C@H](O)c1ccc(O)c2[nH]c(=O)ccc12` [Compound 5E, (1-Benzylpiperidin-4-yl)methyl (S)-2-hydroxy-2-(3-(3-((4-((((R)-2-hydroxy-2-(8-hydroxy-2-oxo-1,2-dihydroquinolin-5-yl)ethyl)amino)methyl)-3-methoxybenzamido)methyl)pyrazin-2-yl)phenyl)-2-phenylacetate], the values for the IC50 in assay [1] and in assay [2] were below 0.3 nM and 0.3 to 3 nM, respectively.
Regarding `O=C(c1ccnc(-c2cccc([C@](O)(C(=O)OCC3CCN(Cc4ccccc4)CC3)c3ccccc3)c2)c1)N1CCC(CNC[C@H](O)c2ccc(O)c3[nH]c(=O)ccc23)CC1` [Compound 6, (1-Benzylpiperidin-4-yl)methyl (S)-2-hydroxy-2-(3-(4-(4-((((R)-2-hydroxy-2-(8-hydroxy-2-oxo-1,2-dihydroquinolin-5-yl)ethyl)amino)methyl)piperidine-1-carbonyl)pyridin-2-yl)phenyl)-2-phenylacetate], the IC50 in assay [1] is below 0.3 nM; in assay [2], 0.3 to 3 nM.
